One test relates to S. aureus (LORSA). Kind of test: in vitro antibacterial activity (MIC), S. aureus (LORSA). It counts as cell-based. The conditions noted are these: Staphylococcus aureus. The text has this: (§1) The in vitro antibacterial activity of the compound of the present invention may be assessed by following procedures recommended in (1) National Committee for Clinical Laboratory Standards (January 2003), Methods for dilution antimicrobial tests for bacteria that grow aerobically, Approved Standard (6th ed), M7-A6, NCCLS, Wayne, Pa.; (2) National Committee for Clinical Laboratory Standards (March 2001), Methods for antimicrobial susceptibility testing of anaerobic bacteria, Approved Standard (5th ed), M11-A4, NCCLS, Wayne, Pa.; (3) National Committee for Clinical Laboratory Standards (Jan. 2003), MIC testing supplemental tables, M100-S13 (for use with M7-A6), NCCLS, Wayne, Pa.; and (4) Murray P R, Baron E J, Jorgensen J H, et al. Manual of Clinical Microbiology (8th ed) Washington, D.C.: American Society for Microbiology Press, 2003. The antibacterial activity can be presented in the form of MIC value. The MIC value is the lowest concentration of drug, which prevented macroscopically visible growth under the conditions of the test.

The next test has as its system S. pneumoniae (LRSA). Kind of test: in vitro antibacterial activity (MIC), S. pneumoniae (LRSA). It counts as cell-based. The following applies: Streptococcus pneumoniae.
Description: as §1

Another test concerns the target T1, MAO-B (Homo sapiens, UniProt P27338).
T1 sequence (P27338 1-520): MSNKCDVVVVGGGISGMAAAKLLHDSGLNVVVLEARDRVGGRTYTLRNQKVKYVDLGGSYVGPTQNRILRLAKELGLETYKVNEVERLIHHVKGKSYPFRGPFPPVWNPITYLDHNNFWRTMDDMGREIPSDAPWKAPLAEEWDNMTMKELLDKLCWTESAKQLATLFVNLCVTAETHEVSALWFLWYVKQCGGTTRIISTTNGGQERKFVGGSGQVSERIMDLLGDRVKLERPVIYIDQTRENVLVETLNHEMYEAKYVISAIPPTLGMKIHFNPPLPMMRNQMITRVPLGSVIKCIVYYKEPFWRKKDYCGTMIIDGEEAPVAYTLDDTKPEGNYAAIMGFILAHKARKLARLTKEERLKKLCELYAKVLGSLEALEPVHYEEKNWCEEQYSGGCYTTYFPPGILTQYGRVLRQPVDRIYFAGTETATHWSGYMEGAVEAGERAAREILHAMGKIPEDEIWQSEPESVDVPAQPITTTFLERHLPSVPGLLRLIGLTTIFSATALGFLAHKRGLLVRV
Kind of test: monoamine oxidase inhibition, MAO-B. It is filed as biochemical. The conditions noted are these: substrate at Km 43 μM; MAO-B 0.008 mg/mL. As to the method:
(§2) MAO-A and B inhibition were analyzed by measuring the inhibition of conversion of an MAO substrate, 1-methyl-4-(1-methyl-2-pyrryl)-1,2,3,6-tetrahydropyridine, to its dihydropyridinium metabolite (λ=421 nm). The substrate concentration was equal to the Km (64 μM for MAO-A and 43 μM for MAO-B). The MAO-A concentration was 0.01 mg/mL, and the MAO-B concentration was 0.008 mg/mL. Each inhibitor was tested at seven concentrations. Percent inhibition at each concentration was established relative to the uninhibited control rate, and the IC50 and Ki values were calculated.

The next test deals with E. faecalis (VREF). As to the kind of experiment: in vitro antibacterial activity (MIC), E. faecalis (VREF). It is filed as cell-based. The conditions noted are these: Enterococcus faecalis.
Description: as §1

The target of another test is T2, MAO-A (Homo sapiens, UniProt P21397).
T2 sequence (P21397 1-527): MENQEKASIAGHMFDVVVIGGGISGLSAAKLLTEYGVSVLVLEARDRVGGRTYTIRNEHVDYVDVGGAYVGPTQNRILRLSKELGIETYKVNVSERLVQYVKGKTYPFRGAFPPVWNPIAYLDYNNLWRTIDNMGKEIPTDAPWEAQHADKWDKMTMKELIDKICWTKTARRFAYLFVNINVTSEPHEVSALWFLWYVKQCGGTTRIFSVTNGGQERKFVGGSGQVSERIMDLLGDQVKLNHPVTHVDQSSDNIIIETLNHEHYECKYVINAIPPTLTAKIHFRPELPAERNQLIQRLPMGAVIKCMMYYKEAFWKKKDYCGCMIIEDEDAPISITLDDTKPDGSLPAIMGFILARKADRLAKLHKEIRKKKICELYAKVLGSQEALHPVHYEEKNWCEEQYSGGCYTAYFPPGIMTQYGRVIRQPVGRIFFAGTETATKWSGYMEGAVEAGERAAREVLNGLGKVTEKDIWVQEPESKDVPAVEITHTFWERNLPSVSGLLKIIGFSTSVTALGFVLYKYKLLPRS
As to the kind of experiment: monoamine oxidase inhibition, MAO-A. It counts as biochemical. The conditions noted are these: substrate at Km 64 μM; MAO-A 0.01 mg/mL. The protocol:
as §2

In another test the test system is E. faecium (VREF). Kind of test: in vitro antibacterial activity (MIC), E. faecium (VREF). It is filed as cell-based. The following applies: Enterococcus faecium.
Description: as §1

In another test the test system is S. pneumoniae SV1 SP-3. Kind of test: in vitro antibacterial activity, S. pneumoniae SV1 SP-3. It is filed as cell-based. The following applies: Streptococcus pneumoniae, SV1SP3; strain SV1 SP-3.
Description: as §1

In the next test the test system is S. aureus UC-76 SA-1. Kind of test: in vitro antibacterial activity, S. aureus UC-76 SA-1. It counts as cell-based. The following applies: Staphylococcus aureus, UC76; strain UC-76 SA-1.
Description: as §1

A further test deals with E. faecalis MGH-2 EF 1-1. As to the kind of experiment: in vitro antibacterial activity, E. faecalis MGH-2 EF 1-1. It counts as cell-based. The following applies: Enterococcus faecalis, MGH2EF11; strain MGH-2 EF 1-1.
Description: as §1

Converted amounts (≈) assume the structure as drawn.

Usually MIC90 stands for the lowest concentration that inhibits either 90% of growth or 90% of the strains tested, depending on the study. Read a high MIC90 as lower susceptibility. For orientation: Ki means the equilibrium dissociation constant of an inhibitor or competing ligand from its target. Lower therefore signals tighter binding.

For `CCN1C(=O)Cc2cc(N3C[C@H](CNC(=O)OC)OC3=O)ccc21` [Compound No. 1, (5S)-[3-(1-ethyl-2-oxo-2,3-dihydro-1H-indol-5-yl)-2-oxo-oxazolidin-5-ylmethyl]-carbamic acid methyl ester], the MIC90 against S. aureus (LORSA) turned out to be 4 µg/mL (≈ 12 µM); in the test with S. pneumoniae (LRSA) it was 2 µg/mL (≈ 6 µM); in the test with E. faecalis (VREF), 4 µg/mL (≈ 12 µM); with E. faecium (VREF) it was 4 µg/mL (≈ 12 µM). The Ki turned out to be 57.4 µM on MAO-B and 880 µM on MAO-A.
For `COC(=O)NC[C@H]1CN(c2ccc3c(c2)CC(=O)N3C)C(=O)O1` [Example 2, (S)-[3-(1-methyl-2-oxo-2,3-dihydro-1H-indol-5-yl)-2-oxo-oxazolidin-5-ylmethyl]-carbamic acid methyl ester], the values for the MIC90 with S. pneumoniae SV1 SP-3, against S. aureus UC-76 SA-1 and against E. faecalis MGH-2 EF 1-1 were 1 µg/mL (≈ 3.13 µM), 4 µg/mL (≈ 12.5 µM) and 2 µg/mL (≈ 6.26 µM), respectively.
Taken in the same sequence, the figures for `COC(=O)NC[C@H]1CN(c2ccc3c(c2)CC(=O)N3CCF)C(=O)O1` [Example 3, (S)-{3-[1-(2-fluoro-ethyl)-2-oxo-2,3-dihydro-1H-indol-5-yl]-2-oxo-oxazolidin-5-ylmethyl}-carbamic acid methyl ester] were 2 µg/mL (≈ 5.69 µM), 4 µg/mL (≈ 11.4 µM) and 2 µg/mL (≈ 5.69 µM).
Taken in the same sequence, the figures for `COC(=O)NC[C@H]1CN(c2ccc3c(c2)CC(=O)N3C(C)C)C(=O)O1` [Example 4, (S)-[3-(1-isopropyl-2-oxo-2,3-dihydro-1H-indol-5-yl)-2-oxo-oxazolidin-5-ylmethyl]-carbamic acid methyl ester] were 4 µg/mL (≈ 11.5 µM), 8 µg/mL (≈ 23 µM) and 8 µg/mL (≈ 23 µM).
Taken in the same sequence, the figures for `CCCN1C(=O)Cc2cc(N3C[C@H](CNC(=O)OC)OC3=O)ccc21` [Example 5, (S)-[2-oxo-3-(2-oxo-1-propyl-2,3-dihydro-1H-indol-5-yl)-oxazolidin-5-ylmethyl]-carbamic acid methyl ester] were 4 µg/mL (≈ 11.5 µM), 8 µg/mL (≈ 23 µM) and 4 µg/mL (≈ 11.5 µM).
`COC(=O)NC[C@H]1CN(c2ccc3c(c2)CC(=O)N3C2CC2)C(=O)O1` [Example 6, (S)-[3-(1-cyclopropyl-2-oxo-2,3-dihydro-1H-indol-5-yl)-2-oxo-oxazolidin-5-ylmethyl]-carbamic acid methyl ester]: the MIC90 against S. pneumoniae SV1 SP-3, against S. aureus UC-76 SA-1 and with E. faecalis MGH-2 EF 1-1 was 4 µg/mL (≈ 11.6 µM) throughout.
Regarding `COC(=O)NC[C@H]1CN(c2ccc3c(c2)CC(=O)N3CC2CC2)C(=O)O1` [Example 7, (S)-[3-(1-cyclopropylmethyl-2-oxo-2,3-dihydro-1H-indol-5-yl)-2-oxo-oxazolidin-5-ylmethyl]-carbamic acid methyl ester], the results for the MIC90 in the test on S. pneumoniae SV1 SP-3, with S. aureus UC-76 SA-1 and against E. faecalis MGH-2 EF 1-1 were 4 µg/mL (≈ 11.1 µM), 8 µg/mL (≈ 22.3 µM) and 8 µg/mL (≈ 22.3 µM), respectively.
With `COC(=O)NC[C@H]1CN(c2ccc3c(c2)CC(=O)N3C(C)CF)C(=O)O1` (stereo partly drawn) [Example 8, (S)-{3-[1-(2-fluoro-1-methyl-ethyl)-2-oxo-2,3-dihydro-1H-indol-5-yl]-2-oxo-oxazolidin-5-ylmethyl}-carbamic acid methyl ester], the MIC90 against S. pneumoniae SV1 SP-3, against S. aureus UC-76 SA-1 and in the test on E. faecalis MGH-2 EF 1-1 was 4 µg/mL (≈ 10.9 µM) each time.

The values above are taken from patent publication US20060229348A1, “Oxindole oxazolidinone as antibacterial agent” (priority 2005, published 2006).
